Laboratory results published in US9513288B2, “Isoform-selective inhibitors and activators of PDE3 cyclic nucleotide phosphodiesterases” (The United States of America, as represented by the …, priority 2001, dated 2016).
Read-outs that look alike come from different tables or passages of the source.

Legend:
[1] = tested on: 3T3 adipocytes; assay: Association of PKB with PDE3B in microsomal fractions of 3T3 adipocytes; format: cell-based; conditions: not shown
From the text: The interactions of PKB with PDE3B were examined. Microsomal fractions of 3T3 adipocytes (which express PDE3B) were solubilized with NP-40 and fractionated by gel filtration. […] An association between PKB and PDE3B was confirmed by the ability of anti-PDE3B antibodies to co-immunoprecipitate the two proteins in the PDE3B peak (not shown).

[2] = tested on: PDE3A1; assay: Phosphorylation and 14-3-3 binding of FLAG-tagged PDE3A1 in transfected HEK293 cells; format: cell-based, human; conditions: PMA 10 ng/ml 15 min; for phosphorylation of PDE3A1 at S428 / phosphorylation of PDE3A1 at S312: dibutyryl cAMP 1 mM 1 hour, phosphospecific antibodies; for binding of PDE3A1 to endogenous 14-3-3 (co-immunoprecipitation) / phosphorylation of PDE3A1 at S312: isoproterenol 90 sec
Method: (§1) FIGS. 8A-8C Illustrate phosphorylation of PDE3A1 and PDE3A2 in response to PKA and PKC activation. HEK293 cells were transfected with FLAG-tagged PDE3A2 and PDE3A1. (A) Prior to lysis and immunoprecipitation with anti-FLAG antibodies, cells were treated with 1 µM isoproterenol for 90 sec or 10 ng/ml PMA for 15 min. (B) The experiment was carried out in cells incubated in the absence and presence of 100 μM IBMX before treatment with 1 µM isoproterenol for 90 sec. (C) FLAG-tagged PDE3A2 and PDE3A1, affinity-purified from transfected cells using anti-FLAG antibodies, were incubated in the absence or presence of 10 or 100 nM PKA and 200 μM ATP for 20 min at 30° C. Phosphorylation was analyzed by Western blotting with phosphospecific antibodies as indicated.
(§2) Furthermore, when affinity-purified FLAG-tagged PDE3A and PDE3A2 were phosphorylated in vitro by PKA, PDE3A2 was phosphorylated more robustly than PDE3A1 at both S312 and S428 (for both isoforms, S312 was phosphorylated more robustly than S428) […].
(§3) Activation of PKC by PMA in transfected HEK293 cells results in selective phosphorylation of PDE3A2 at S428: We compared the effects of PKC activation by PMA on the phosphorylation of FLAG-tagged PDE3A1 and PDE3A2 in transfected HEK293 cells.
(§4) Illustrative immunoprecipitation and immunoblotting: Endogenous or recombinant human PDE3A, its fragments or mutants, endogenous 14-3-3 or GST-14-3-3 proteins were immunoprecipitated by incubation overnight at 4° C. with anti-FLAG(M2)-coupled agarose beads or glutathione sepharose beads. Beads were centrifuged (5,000×g, 1 min) and washed four times with 1 ml buffer containing 20 mM MOPS pH 7.2, 15 mM MgCl2, 0.5% NP40 and 150 mM NaCl. Proteins were subjected to SDS-PAGE (8% polyacrylamide) and electrophoretic transfer to nitrocellulose membranes. Membranes were blocked using 5% nonfat milk in Tris-buffered saline (50 mM Tris pH 7.5, 150 mM NaCl, 0.1% Tween-20) for 1 h at room temperature and incubated with primary and HRP-conjugated secondary antibodies prepared in 5% (w/v) bovine serum albumin. Protein bands were visualized using an enhanced chemiluminescence detection system.
(§5) Treatment of cells with pharmacologic agents: HEK293 cells expressing the human PDE3A constructs were incubated at 37° C. in serum-free medium containing isoproterenol for 90 sec or PMA for 15 min. At the end of the incubation period, cells were solubilized in lysis buffer containing 20 mM MOPS pH 7.2, 15 mM MgCl2, 0.5% NP40, 150 mM NaCl, 5 mM EDTA, protease inhibitor cocktail and phosphatase inhibitor cocktail 3. Cellular debris was removed by centrifugation (1,000×g; 5 min), and cleared supernatants were used in the experiments.

[3] = tested on: PDE3A2; assay: Phosphorylation and 14-3-3 binding of FLAG-tagged PDE3A2 in transfected HEK293 cells; format: cell-based, human; conditions: for phosphorylation of PDE3A2 at S312 / phosphorylation of PDE3A2 at S428: isoproterenol 90 sec, dibutyryl cAMP 1 mM 1 hour, phosphospecific antibodies
Method: as §1, §2, §3, §4, §5

[4] = tested on: PDE3A2; assay: cAMP-hydrolytic activity of FLAG-tagged PDE3A2 in transfected HEK293 cells; format: cell-based, human; conditions: 10 ng/ml PMA 15 min, 1 mM dBcAMP 1 hour; for cAMP-hydrolytic activity of PDE3A2: isoproterenol
Method: (§6) FIGS. 9A-9B illustrate stimulation of PDE3A2 and PDE3A1 activity in response to PKC and PKA activation. (A) HEK293 cells were transfected with FLAG-tagged PDE3A2, with and without alanine substitution at S428, and treated with 10 ng/ml PMA for 15 min or 1 mM dBcAMP for 1 hour. (B) HEK293 cells were transfected with FLAG-tagged PDE3A1, with and without alanine substitutions at S312 and S428, and treated with 1 μM isoproterenol for 90 sec, 10 ng/ml PMA for 15 min or 1 mM dBcAMP for 1 hour. PDE3 activity was assayed as described. PDE3A constructs were immunoprecipitated with anti-FLAG antibody, and phosphorylation was analyzed by immunoblotting with anti-FLAG and phosphospecific antibodies as indicated; and
(§7) PKA and PKC modulate the catalytic activity of PDE3A and PDE3A2 through distinct molecular mechanisms: In view of the reported effects of PKA and PKC on PDE3A activity^3-6, we examined the effects of phosphorylation at S312 and S428 on the cAMP-hydrolytic activity of PDE3A isoforms in transfected HEK293 cells. […] This stimulation was not observed when cells were treated with either the EPAC activator 8-pCPT-2′-O-Me-cAMP or with sodium butyrate (FIG. 3). […] To determine whether similar consequences of phosphorylation occur in the case of PDE3A isoforms, protein extracts from transfected HEK293 cells, untreated or exposed to either isoproterenol or PMA, were analyzed by gel-filtration chromatography, measurement of catalytic activity and Western blotting. Under basal conditions, PDE3 activity and protein was recovered in a biphasic pattern in low- and high-molecular-weight peaks (FIG. 5).
(§8) Measurement of cAMP-hydrolytic activity: cAMP-hydrolytic activity was quantified at 30° C. by the two-step snake-venom method with [^3H]cAMP (1 μM) as substrate; PDE3 activity was quantified by measuring activity in the absence and presence of cilostamide. The amount of protein used per assay and the incubation times were adjusted to ensure that no more than 20% of the total cyclic nucleotide was hydrolyzed during the assay.
as §5

[5] = tested on: PDE3A2; assay: Gel-filtration chromatography and two-dimensional analysis of proteins co-immunoprecipitated with PDE3A2 from transfected HEK293 cells; format: cell-based, human; conditions: 10 ng/ml PMA 15 min; isoelectric focusing and SDS-PAGE
Method: (§9) FIGS. 5A-5B Illustrate two-dimensional analysis of HEK293 cell proteins co-immunoprecipitated with PDE3A, wherein FLAG-tagged PDE3A1- and PDE3A2-transfected HEK293 cells were treated with 1 μM isoproterenol for 90 sec or 10 ng/ml PMA for 15 min, respectively; untransfected, untreated cells served as controls. PDE3A1 and PDE3A2 were immunoprecipitated with anti-FLAG antibody. PDE3A isoforms and co-immunoprecipitated proteins were eluted with 250 μg/ml of 3×FLAG peptide and submitted to isoelectric focusing followed by SDS-PAGE. Proteins were visualized by silver staining, and spots were quantified and analyzed for inter-gel comparison using PDquest 8.1 software. Experiments were carried out in triplicate, such that (A) Images from one experiment are shown. […]
(§10) PKA and PKC modulate the catalytic activity of PDE3A and PDE3A2 through distinct molecular mechanisms: In view of the reported effects of PKA and PKC on PDE3A activity^3-6, we examined the effects of phosphorylation at S312 and S428 on the cAMP-hydrolytic activity of PDE3A isoforms in transfected HEK293 cells. […] To determine whether similar consequences of phosphorylation occur in the case of PDE3A isoforms, protein extracts from transfected HEK293 cells, untreated or exposed to either isoproterenol or PMA, were analyzed by gel-filtration chromatography, measurement of catalytic activity and Western blotting. […]

[6] = tested on: PDE3A1; assay: cAMP-hydrolytic activity of FLAG-tagged PDE3A1 in transfected HEK293 cells; format: cell-based, human; conditions: 1 mM dBcAMP 1 hour; for cAMP-hydrolytic activity of PDE3A1: 1 μM isoproterenol 90 sec, 50 μM 8-pCPT-2′-O-Me-cAMP or 0.1 mM sodium butyrate 1 hour
Method: FIG. 3 Illustrates an illustrative effect of d8-pCPT-2′-O-Me-cAMP and sodium butyrate on PDE3A1 activity, wherein HEK293 cells were transfected with FLAG-tagged PDE3A and treated with 50 μM d8-pCPT-2′-O-Me-cAMP, 0.1 mM sodium butyrate or 1 mM dBcAMP for 1 hour. PDE3A activity was assayed as described;
as §6, §7, §8, §5

[7] = tested on: PDE3; assay: cAMP-hydrolytic activity in cytosolic and microsomal fractions of human myocardium; format: biochemical
[8] = treatment of dilated cardiomyopathy; cited from earlier work
[9] = tested on: PDE3A1; assay: Gel-filtration chromatography and two-dimensional analysis of proteins co-immunoprecipitated with PDE3A1 from transfected HEK293 cells; format: cell-based, human; conditions: 1 μM isoproterenol 90 sec
Method: as §9, §10

insulin: insulin, used to treat 3T3 adipocytes
percentage of PKB co-purifying with PDE3B ([1]; gel filtration): appeared to increase the percentage of PKB co-purifying with PDE3B | phosphorylation of PKB [1]: increased the phosphorylation of PKB

CCCCCCCCCCCCCC(=O)O[C@@H]1[C@@H](C)[C@@]2(O)[C@@H](C=C(CO)C[C@]3(O)C(=O)C(C)=C[C@@H]23)[C@@H]2C(C)(C)[C@]12OC(C)=O [PMA]
phosphorylation of PDE3A1 at S428 [2]: little increase in phosphorylation at S428 | binding of PDE3A1 to endogenous 14-3-3 (co-immunoprecipitation) [2]: little increase in binding to endogenous 14-3-3 | phosphorylation of PDE3A1 at S312 [2]: no increase in phosphorylation of S312 | binding of PDE3A2 to endogenous 14-3-3 (co-immunoprecipitation) ([3]; PMA 10 ng/ml 15 min): increased binding to endogenous 14-3-3 | phosphorylation of PDE3A2 at S312 ([3]; PMA 10 ng/ml 15 min): no increase in phosphorylation at S312 | phosphorylation of PDE3A2 at S428 ([3]; PMA 10 ng/ml 15 min): marked increase in phosphorylation at S428 | stimulation of cAMP-hydrolytic activity of PDE3A2 with S428A substitution [4]: blocked | cAMP-hydrolytic activity of PDE3A2 [4]: increase in cAMP-hydrolysis | number of proteins co-immunoprecipitated with PDE3A2 [5]: increased the number of proteins that co-immunoprecipitated with PDE3A2

CO[C@@H]1[C@@H]2OP(=O)(O)OC[C@H]2O[C@H]1n1c(Sc2ccc(Cl)cc2)nc2c(N)ncnc21 [8-pCPT-2′-O-Me-cAMP]
cAMP-hydrolytic activity of PDE3A1 [6]: not observed

O=C1CCc2cc(OCCCCc3nnnn3C3CCCCC3)ccc2N1 [cilostazol]
effects on cAMP-hydrolytic activity ([7]; cytosolic versus microsomal fractions of human myocardium): more potent effects in microsomal fractions

CCCC(=O)Nc1ncnc2c1ncn2[C@@H]1O[C@@H]2COP(=O)(O)O[C@H]2[C@H]1OC(=O)CCC [dibutyryl cAMP]
phosphorylation of PDE3A1 at S428 [2]: significant increase in the phosphorylation of PDE3A at both S312 and S428 | phosphorylation of PDE3A1 at S312 [2]: significant increase in the phosphorylation of PDE3A at both S312 and S428 | phosphorylation of PDE3A2 at S312 ([3]; PMA 10 ng/ml 15 min): phosphorylation at both S312 and S428 | phosphorylation of PDE3A2 at S428 ([3]; PMA 10 ng/ml 15 min): phosphorylation at both S312 and S428 | cAMP-hydrolytic activity of PDE3A1 [6]: stimulation of cAMP-hydrolytic activity | cAMP-hydrolytic activity of PDE3A1 construct with S312A and S428A substitutions [6]: same stimulation of catalytic activity | stimulation of cAMP-hydrolytic activity of PDE3A2 with S428A substitution [4]: similarly blocked by the S428A mutation

Nc1cc(-c2ccncc2)c[nH]c1=O [amrinone]
initial hemodynamic responses [8]: favorable hemodynamic responses

CCCC(=O)[O-].[Na+] [sodium butyrate]
cAMP-hydrolytic activity of PDE3A1 [6]: not observed

CC(C)NCC(O)c1ccc(O)c(O)c1 (centres unmarked) [isoproterenol]
binding of PDE3A1 to endogenous 14-3-3 (co-immunoprecipitation) [2]: co-immunoprecipitation of endogenous 14-3-3 | phosphorylation of PDE3A1 at S312 [2]: phosphorylation of PDE3A1 at S312 | phosphorylation of PDE3A2 at S312 in the presence of IBMX ([3]; 100 μM IBMX before isoproterenol for 90 sec): readily phosphorylated at S312 | phosphorylation of PDE3A2 at S312 ([3]; PMA 10 ng/ml 15 min): little phosphorylation of PDE3A2 | phosphorylation of PDE3A2 at S428 ([3]; PMA 10 ng/ml 15 min): little phosphorylation of PDE3A2 | cAMP-hydrolytic activity of PDE3A1 [6]: did not stimulate cAMP-hydrolytic activity | cAMP-hydrolytic activity of PDE3A2 [4]: no stimulation of either isoform | elution of PDE3 activity and protein on Superose 6 gel filtration, PDE3A1-transfected cells [9]: pronounced shift of activity and protein from low- to high-molecular-weight peaks | number of proteins co-immunoprecipitated with PDE3A1 ([9]; isoelectric focusing and SDS-PAGE): increased the number of proteins that co-immunoprecipitated with PDE3A1

Cc1[nH]c(=O)c(C#N)cc1-c1ccncc1 [milrinone]
effects on cAMP-hydrolytic activity [7]: more potent effects in microsomal fractions
